Data: paper PMC8486872, “A rational blueprint for the design of chemically-controlled protein switches” (Nature Communications, 2021)
Values joined by “and” are separate entries in the source; they are usually repeats but may differ in a detail not shown here. Identical values can stand only once.

Columns and labels:
[1] = biological target: T1, LD3 in the presence of Drug-1 (Homo sapiens, UniProt Q07817, DEL45-84/F105I/R102E); experiment: SPR pre-screening and competition of Drug-1 resistant Bcl-XL mutants binding LD3; conditions: Fig S10d
T1 construct: 6xHis (N); made in house; host or cells: E. coli BL21(DE3)
T1 sequence (Q07817 with tags, fused parts or gaps DEL45-84/R102E/F105I limits assumed): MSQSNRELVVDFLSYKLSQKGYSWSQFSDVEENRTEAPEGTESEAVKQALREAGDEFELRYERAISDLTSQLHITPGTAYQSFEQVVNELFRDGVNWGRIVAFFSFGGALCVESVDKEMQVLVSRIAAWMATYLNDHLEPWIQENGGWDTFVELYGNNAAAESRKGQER
Protocol: Supplementary Figure 10: Biophysical and cellular characterization of designed Drug-1- […]
a) Pre-screening of Drug-1 resistant Bcl-XL mutants by SPR. 5 µM of Bcl-XL and five mutants were mixed with 10 µM of Drug-1 and injected over the LD3 immobilized chip to analyse the binding response. […]
dilutions of Drug-1 were pre-mixed with 4 µM LD3 and injected over iBcl-XL_v3 immobilized chip to collect the response. c) Dissociation constant measurement of iBcl-XL_v3 and LD3. Sensorgrams are in black dashed curves and the fitted curves in solid red lines. Kd was using a 1:1 binding model. d) […]
normalized to the positive control (DMSO group). […]

[2] = tested on: SEAP and Luciferase expression in HEK293T cells; experiment: SIMO designer cells (AIR-1/2-GEMS + CDH-1/2-TF); format: cell-based; set-up: Bottom (best-fit value) / Top (best-fit value) / Span (best-fit value): unit not given here; conditions: for logIC50 (best-fit value): drug in nM
Description: Fig. 5 Orthogonal chemical switches enable implementation of multi-input multi-output control modes in mammalian cells. a Scheme of multi-inputs multi-outputs (MIMO) designer cells where two drugs control two different outputs. b, c Cells were co-transfected with AIR-1/2-GEMS and CDH-3-TF regulate SEAP and Luciferase expression, respectively. […] AIR-1/2-GEMS coupled with SEAP expression circuits were co-transfected with CDH-1/2-TF circuits which control the Luciferase production. Respective drug concentrations ranged from 0.001 nM to 1 µM. All values presented are mean ± s.d. of three replicates and curves were fitted by four-parameters nonlinear regression. b, c, e, f, h, i Source data are available in the source data file.
Finally, we engineered SIMO cells (Fig. 5g) using two designed switches that produce ON and OFF responses upon exposure to the same drug. We transfected cells with combinations of AIR-GEMS and CDH-TFs which controlled the expression of the reporter proteins SEAP and Luciferase, respectively. […] Therefore, computational design expanded the repertoire of protein switches controlled by the same compounds that can be used to simultaneous turn ON and OFF synergistic outputs. […]
AIR-1-GEMS coupled with SEAP expression circuits (i) and CDH-1-TF circuits which control the Luciferase production (j). j-k) Quantification of SEAP and Luciferase activities under Drug-2. AIR-2-GEMS coupled with SEAP expression circuits (k) and CDH-2-TF circuits which control the Luciferase production (l). b-k) Each data point represents the mean of n = 3 biological replicates, and the dose-dependent curve were fitted using four-parameter nonlinear regression.

[3] = Fig S13i, CDH-1-TF control Luciferase expression only, Drug-1 0.01 nM
[4] = Fig S13i, CDH-1-TF control Luciferase expression only, Drug-1 10 nM
[5] = Fig S13i, CDH-1-TF control Luciferase expression only, Drug-1 31.6 nM
[6] = Fig S13i, CDH-1-TF control Luciferase expression only, Drug-1 100 nM
[7] = Fig S13i, CDH-1-TF control Luciferase expression only, Drug-1 316 nM
[8] = Fig S13h, AIR-1-GEMS control SEAP expression only, Drug-1 0.01 nM
[9] = Fig S13h, AIR-1-GEMS control SEAP expression only, Drug-1 0.1 nM
[10] = Fig S13h, AIR-1-GEMS control SEAP expression only, Drug-1 1 nM
[11] = Fig S13h, AIR-1-GEMS control SEAP expression only, Drug-1 316 nM
[12] = sheet Figure5h, Luciferase, four-parameter fit
[13] = sheet Figure5h, SEAP, four-parameter fit

CN(C)CC#Cc1ccc(OCCCc2sc(N3CCc4cccc(C(=O)Nc5nc6ccccc6s5)c4C3)nc2C(=O)O)c(F)c1 [Drug-1, A-1155463]
iBcl-XL_v3 response ([1]; Drug-1 0.001 nM): 174.876 and 175.206 and 177.174 | iBcl-XL_v3 response ([1]; Drug-1 0.01 nM): 215.202 and 222.394 and 221.188 | iBcl-XL_v3 response ([1]; Drug-1 0.05 nM): 207.736 and 204.171 and 203.036 | iBcl-XL_v3 response ([1]; Drug-1 0.1 nM): 189.507 and 193.343 and 194.134 | iBcl-XL_v3 response ([1]; Drug-1 0.5 nM): 204.985 and 206.922 and 206.979 | iBcl-XL_v3 response ([1]; Drug-1 1 nM): 184.864 and 185.609 and 186.635 | iBcl-XL_v3 response ([1]; Drug-1 10 nM): 194.117 and 193.916 and 200.456 | iBcl-XL_v3 response ([1]; Drug-1 50 nM): 193.965 and 195.069 and 198.505 | iBcl-XL_v3 response ([1]; Drug-1 100 nM): 183.254 and 186.244 and 183.907 | iBcl-XL_v3 response ([1]; Drug-1 500 nM): 165.059 and 166.616 and 165.103 | iBcl-XL_v3 response ([1]; Drug-1 1000 nM): 154.762 and 156.9 and 154.341 | IC50 ([1]; iBcl-XL_v3, best-fit, inhibitor vs. response (three parameters)): 705 nM | logIC50 ([1]; iBcl-XL_v3, best-fit, three parameters, Drug-1 in nM): 2.848 | SEAP and Luciferase outputs in SIMO cells ([2]; 0.001 nM to 1 µM): simultaneously activated SEAP production and suppressed the expression of Luciferase | SEAP ([2]; Fig5h, turn ON via AIR-1-GEMS, 0.001 nM): 19.8743 U/L and 19.5134 U/L and 15.1383 U/L | SEAP ([2]; Fig5h, turn ON via AIR-1-GEMS, 0.005 nM): 19.2907 U/L and 17.6338 U/L and 18.8337 U/L | SEAP ([2]; Fig5h, turn ON via AIR-1-GEMS, 0.01 nM): 18.6271 U/L and 21.8407 U/L and 37.1349 U/L | SEAP ([2]; Fig5h, turn ON via AIR-1-GEMS, 0.05 nM): 37.9776 U/L and 52.7802 U/L and 54.2278 U/L | SEAP ([2]; Fig5h, turn ON via AIR-1-GEMS, 0.1 nM): 39.7647 U/L and 50.8999 U/L and 76.4896 U/L | SEAP ([2]; Fig5h, turn ON via AIR-1-GEMS, 0.5 nM): 46.7816 U/L and 46.7958 U/L and 68.9342 U/L | SEAP ([2]; Fig5h, turn ON via AIR-1-GEMS, 1 nM): 36.1123 U/L and 44.1109 U/L and 47.7004 U/L | SEAP ([2]; Fig5h, turn ON via AIR-1-GEMS, 5 nM): 163.102 U/L and 218.766 U/L and 249.722 U/L | SEAP ([2]; Fig5h, turn ON via AIR-1-GEMS, 10 nM): 315.129 U/L and 324.74 U/L and 353.471 U/L | SEAP ([2]; Fig5h, turn ON via AIR-1-GEMS, 50 nM): 364.997 U/L and 306.053 U/L and 339.025 U/L | SEAP ([2]; Fig5h, turn ON via AIR-1-GEMS, 100 nM): 443.801 U/L and 453.931 U/L and 405.497 U/L | SEAP ([2]; Fig5h, turn ON via AIR-1-GEMS, 500 nM): 488.063 U/L and 432.803 U/L and 436.708 U/L | SEAP ([2]; Fig5h, turn ON via AIR-1-GEMS, 1000 nM): 411.613 U/L and 466.826 U/L and 364.664 U/L | Luciferase ([2]; Fig5h, via CDH-1-TF, 0.005 nM): 13170 and 13560 and 13671 | Luciferase ([2]; Fig5h, via CDH-1-TF, 0.01 nM): 14134 and 13430 and 12324 | Luciferase ([2]; Fig5h, via CDH-1-TF, 0.05 nM): 14625 and 13685 and 11174 | Luciferase ([2]; Fig5h, via CDH-1-TF, 0.5 nM): 10957 and 11915 and 9777 | Luciferase ([2]; Fig5h, via CDH-1-TF, 1 nM): 11394 and 11027 and 9891 | Luciferase ([2]; Fig5h, via CDH-1-TF, 5 nM): 9387 and 10202 and 8501 | Luciferase ([2]; Fig5h, via CDH-1-TF, 10 nM): 9897 and 9353 and 8698 | Luciferase ([2]; Fig5h, via CDH-1-TF, 50 nM): 8493 and 5450 and 4767 | Luciferase ([2]; Fig5h, via CDH-1-TF, 100 nM): 6159 and 4105 and 3304 | Luciferase ([2]; Fig5h, via CDH-1-TF, 500 nM): 6685 and 4541 and 3781 | Luciferase [2, 3]: 4.631 RLU and 4.974 RLU and 6.289 RLU | SEAP [2, 3]: 47563 U/L and 58731 U/L and 59991 U/L | SEAP ([2]; Fig S13i, CDH-1-TF control Luciferase expression only, Drug-1 0.1 nM): 53899 U/L and 50028 U/L and 61321 U/L | SEAP ([2]; Fig S13i, CDH-1-TF control Luciferase expression only, Drug-1 1 nM): 51520 U/L and 52067 U/L and 58888 U/L | SEAP ([2]; Fig S13i, CDH-1-TF control Luciferase expression only, Drug-1 3.16 nM): 43654 U/L and 44498 U/L and 55865 U/L | Luciferase [2, 4]: 5.35 RLU and 3.637 RLU and 4.7853 RLU | SEAP [2, 4]: 47243 U/L and 36047 U/L and 43911 U/L | Luciferase [2, 5]: 10.558 RLU and 9.125 RLU and 9.89 RLU | SEAP [2, 5]: 41739 U/L and 35234 U/L and 36053 U/L | Luciferase [2, 6]: 6.8735 RLU and 7.9639 RLU and 7.26 RLU | SEAP [2, 6]: 32885 U/L and 32749 U/L and 33680 U/L | Luciferase [2, 7]: 7.503 RLU and 9.5502 RLU and 5.763 RLU | SEAP [2, 7]: 36324 U/L and 29686 U/L and 32588 U/L | SEAP ([2]; Fig S13i, CDH-1-TF control Luciferase expression only, Drug-1 1000 nM): 22215 U/L and 22717 U/L and 21612 U/L | Luciferase [2, 8]: 7.197 RLU and 7.213 RLU and 7.2493 RLU | SEAP [2, 8]: 251 U/L and 231 U/L and 325 U/L | Luciferase [2, 9]: 7.338 RLU and 6.8 RLU and 5.088 RLU | SEAP [2, 9]: 201 U/L and 203 U/L and 381 U/L | Luciferase [2, 10]: 9.026 RLU and 10.0168 RLU | SEAP [2, 10]: 267 U/L and 249 U/L and 441 U/L | SEAP ([2]; Fig S13h, AIR-1-GEMS control SEAP expression only, Drug-1 3.16 nM): 363 U/L and 301 U/L and 409 U/L | SEAP ([2]; Fig S13h, AIR-1-GEMS control SEAP expression only, Drug-1 10 nM): 551 U/L and 601 U/L | SEAP ([2]; Fig S13h, AIR-1-GEMS control SEAP expression only, Drug-1 31.6 nM): 639 U/L and 579 U/L and 471 U/L | SEAP ([2]; Fig S13h, AIR-1-GEMS control SEAP expression only, Drug-1 100 nM): 421 U/L and 435 U/L and 441 U/L | Luciferase [2, 11]: 232.378 RLU and 215.546 RLU and 184.304 RLU | SEAP [2, 11]: 301 U/L and 339 U/L and 443 U/L | Luciferase ([2]; Fig S13h, AIR-1-GEMS control SEAP expression only, Drug-1 1000 nM): 239.146 RLU and 224.11 RLU and 201.76 RLU | Bottom (best-fit value) [2, 12]: 1591 | HillSlope (best-fit value) [2, 12]: -0.5534 | Span (best-fit value) [2, 12]: 8125 | Top (best-fit value) [2, 12]: 9717 | logIC50 (best-fit value) [2, 12]: 1.252 | IC50 ([2]; sheet Figure5h, Luciferase, four-parameter fit, read-out: IC50 (best-fit value)): 17.9 nM | Bottom (best-fit value) [2, 13]: 10.72 | HillSlope (best-fit value) [2, 13]: 0.8045 | Span (best-fit value) [2, 13]: 94.16 | Top (best-fit value) [2, 13]: 104.9 | logIC50 (best-fit value) [2, 13]: 1.797
